Counter-ions that a name gives are not always drawn. Like-named read-outs stand apart in the source and are kept apart here.
Assays:
[1] = target: T1, Nav1.5 (Homo sapiens (Human), UniProt Q14524); test: Sodium Influx Assay (Flux), Nav1.5
[2] = target: T2, Nav1.6 (Homo sapiens (Human), UniProt Q9UQD0); test: Electrophysiological Assay (EP, patch voltage clamp), Nav1.6; type: cell-based; settings: HEK-293 cells stably expressing the channel
Source text: Patch voltage clamp electrophysiology allows for the direct measurement and quantification of block of voltage-gated sodium channels (Nav's), and allows the determination of the time- and voltage-dependence of block which has been interpreted as differential binding to the resting, open, and inactivated states of the sodium channel (Hille, B., Journal of General Physiology (1977), 69: 497-515).
Nav1.1, Nav1.5 and Nav1.6 cDNAs (NM_001165964 (SCN1A), NM_000335 (SCN5A) and NM_014191 (SCN8A), respectively) were stably expressed in HEK-293 cells.
Sodium currents were measured using the patch clamp technique in the whole-cell configuration using either a PatchXpress automated voltage clamp or manually using an Axopatch 200B (Axon Instruments) or Model 2400 (A-M systems) amplifier. The manual voltage clamp protocol was as follows: Borosilicate glass micropipettes were fire-polished to a tip diameter yielding a resistance of 2-4 Mohms in the working solutions. […] In some studies, the external sodium was reduced by equimolar replacement with choline. Osmolarity in the CsF internal and NaCl external solutions was adjusted to 300 mOsm/kg and 310 mOsm/kg with glucose, respectively. All recordings were performed at ambient temperature in a bath chamber with a volume of 150 μL. Control sodium currents were measured in 0.5% DMSO. Controls and representative compounds of the invention were applied to the recording chamber through a 4-pinch or 8-pinch valve bath perfusion system manufactured by ALA Scientific Instruments.
Currents were recorded at 40 kHz sampling frequency, filtered at […], and stored using a Digidata-1322A analogue/digital interface with the pClamp software (Axon Instruments). Series resistance compensation was applied (60-80%). […] All statistics in this study are given as mean±SD.
The membrane potential was maintained at a voltage where inactivation of the channel is complete. The voltage is then stepped back to a very negative (Vhold=−150 mV) voltage for 20 ms and then a test pulse is applied to quantify the compound block. The 20 ms brief repolarization was long enough for compound-free channels to completely recover from fast inactivation, but the compound-bound channels recovered more slowly such that negligible recovery could occur during this interval. The percent decrease in sodium current following wash-on of compound was taken as the percent block of sodium channels.

[3] = target: Nav1.1 (Homo sapiens (Human), UniProt P35498); test: Sodium Influx Assay (Flux), Nav1.1; type: cell-based; settings: Trex HEK293 cells, ANG2 dye, inactivated state
[4] = target: T2, Nav1.6; test: Sodium Influx Assay (Flux), Nav1.6; type: cell-based; settings: Trex HEK293 cells, ANG2 dye, inactivated state
[5] = target: T1, Nav1.5
[6] = read-out: Flux NaV1.5 IC50, sodium influx assay, Trex HEK293 cells, ANG2 dye, inactivated state

T2 sequence (Q9UQD0 whole entry): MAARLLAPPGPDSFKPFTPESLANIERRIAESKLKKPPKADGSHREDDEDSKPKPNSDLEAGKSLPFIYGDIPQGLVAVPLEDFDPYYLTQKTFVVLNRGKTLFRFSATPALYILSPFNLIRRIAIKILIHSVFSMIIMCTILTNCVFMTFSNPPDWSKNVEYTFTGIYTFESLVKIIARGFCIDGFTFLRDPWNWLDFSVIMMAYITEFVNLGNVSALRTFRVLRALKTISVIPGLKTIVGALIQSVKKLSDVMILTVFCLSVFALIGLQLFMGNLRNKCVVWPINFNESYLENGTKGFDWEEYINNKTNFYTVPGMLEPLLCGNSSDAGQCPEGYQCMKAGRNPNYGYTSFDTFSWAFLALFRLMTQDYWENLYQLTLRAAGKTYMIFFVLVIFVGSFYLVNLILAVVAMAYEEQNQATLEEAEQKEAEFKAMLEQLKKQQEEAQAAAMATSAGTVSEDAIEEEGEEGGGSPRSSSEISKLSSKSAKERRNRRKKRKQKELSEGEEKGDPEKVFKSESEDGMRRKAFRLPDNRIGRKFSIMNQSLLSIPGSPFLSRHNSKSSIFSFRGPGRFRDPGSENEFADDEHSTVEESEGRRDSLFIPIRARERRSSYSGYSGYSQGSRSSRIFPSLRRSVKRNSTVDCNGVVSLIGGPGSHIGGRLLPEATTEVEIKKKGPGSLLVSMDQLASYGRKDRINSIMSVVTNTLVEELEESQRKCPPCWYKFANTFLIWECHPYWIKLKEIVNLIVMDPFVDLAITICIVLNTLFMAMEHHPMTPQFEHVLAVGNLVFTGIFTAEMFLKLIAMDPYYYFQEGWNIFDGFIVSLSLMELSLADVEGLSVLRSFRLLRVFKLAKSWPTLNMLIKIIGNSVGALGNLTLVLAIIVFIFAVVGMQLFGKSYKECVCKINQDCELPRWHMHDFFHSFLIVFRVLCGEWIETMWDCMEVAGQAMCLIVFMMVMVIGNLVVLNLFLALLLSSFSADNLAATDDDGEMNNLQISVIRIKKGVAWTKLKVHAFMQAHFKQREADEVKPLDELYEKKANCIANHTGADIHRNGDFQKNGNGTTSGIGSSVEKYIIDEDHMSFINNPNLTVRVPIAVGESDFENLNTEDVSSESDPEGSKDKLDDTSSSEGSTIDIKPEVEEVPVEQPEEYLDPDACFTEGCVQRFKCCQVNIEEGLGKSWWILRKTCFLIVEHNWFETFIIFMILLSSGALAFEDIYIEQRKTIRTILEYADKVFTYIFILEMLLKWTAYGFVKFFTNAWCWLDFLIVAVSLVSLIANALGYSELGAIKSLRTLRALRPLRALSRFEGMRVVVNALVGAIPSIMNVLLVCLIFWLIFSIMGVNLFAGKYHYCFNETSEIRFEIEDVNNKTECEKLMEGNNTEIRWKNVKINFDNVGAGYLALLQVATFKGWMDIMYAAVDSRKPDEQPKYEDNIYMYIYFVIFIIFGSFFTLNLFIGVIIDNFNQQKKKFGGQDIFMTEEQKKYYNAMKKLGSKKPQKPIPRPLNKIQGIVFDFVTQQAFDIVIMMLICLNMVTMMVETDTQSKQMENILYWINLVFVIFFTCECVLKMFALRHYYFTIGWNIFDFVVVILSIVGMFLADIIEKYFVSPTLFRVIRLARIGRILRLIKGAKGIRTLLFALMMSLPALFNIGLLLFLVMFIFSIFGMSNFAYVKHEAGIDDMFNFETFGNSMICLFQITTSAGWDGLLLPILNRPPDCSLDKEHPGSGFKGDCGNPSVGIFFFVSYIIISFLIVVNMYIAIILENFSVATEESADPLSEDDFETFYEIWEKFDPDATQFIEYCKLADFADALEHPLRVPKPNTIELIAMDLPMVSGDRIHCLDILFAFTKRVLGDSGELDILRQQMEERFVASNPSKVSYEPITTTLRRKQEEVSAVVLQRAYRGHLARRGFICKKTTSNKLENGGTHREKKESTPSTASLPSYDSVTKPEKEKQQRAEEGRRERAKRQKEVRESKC
T1 sequence (Q14524 other isoform, or with tags, fused parts or gaps): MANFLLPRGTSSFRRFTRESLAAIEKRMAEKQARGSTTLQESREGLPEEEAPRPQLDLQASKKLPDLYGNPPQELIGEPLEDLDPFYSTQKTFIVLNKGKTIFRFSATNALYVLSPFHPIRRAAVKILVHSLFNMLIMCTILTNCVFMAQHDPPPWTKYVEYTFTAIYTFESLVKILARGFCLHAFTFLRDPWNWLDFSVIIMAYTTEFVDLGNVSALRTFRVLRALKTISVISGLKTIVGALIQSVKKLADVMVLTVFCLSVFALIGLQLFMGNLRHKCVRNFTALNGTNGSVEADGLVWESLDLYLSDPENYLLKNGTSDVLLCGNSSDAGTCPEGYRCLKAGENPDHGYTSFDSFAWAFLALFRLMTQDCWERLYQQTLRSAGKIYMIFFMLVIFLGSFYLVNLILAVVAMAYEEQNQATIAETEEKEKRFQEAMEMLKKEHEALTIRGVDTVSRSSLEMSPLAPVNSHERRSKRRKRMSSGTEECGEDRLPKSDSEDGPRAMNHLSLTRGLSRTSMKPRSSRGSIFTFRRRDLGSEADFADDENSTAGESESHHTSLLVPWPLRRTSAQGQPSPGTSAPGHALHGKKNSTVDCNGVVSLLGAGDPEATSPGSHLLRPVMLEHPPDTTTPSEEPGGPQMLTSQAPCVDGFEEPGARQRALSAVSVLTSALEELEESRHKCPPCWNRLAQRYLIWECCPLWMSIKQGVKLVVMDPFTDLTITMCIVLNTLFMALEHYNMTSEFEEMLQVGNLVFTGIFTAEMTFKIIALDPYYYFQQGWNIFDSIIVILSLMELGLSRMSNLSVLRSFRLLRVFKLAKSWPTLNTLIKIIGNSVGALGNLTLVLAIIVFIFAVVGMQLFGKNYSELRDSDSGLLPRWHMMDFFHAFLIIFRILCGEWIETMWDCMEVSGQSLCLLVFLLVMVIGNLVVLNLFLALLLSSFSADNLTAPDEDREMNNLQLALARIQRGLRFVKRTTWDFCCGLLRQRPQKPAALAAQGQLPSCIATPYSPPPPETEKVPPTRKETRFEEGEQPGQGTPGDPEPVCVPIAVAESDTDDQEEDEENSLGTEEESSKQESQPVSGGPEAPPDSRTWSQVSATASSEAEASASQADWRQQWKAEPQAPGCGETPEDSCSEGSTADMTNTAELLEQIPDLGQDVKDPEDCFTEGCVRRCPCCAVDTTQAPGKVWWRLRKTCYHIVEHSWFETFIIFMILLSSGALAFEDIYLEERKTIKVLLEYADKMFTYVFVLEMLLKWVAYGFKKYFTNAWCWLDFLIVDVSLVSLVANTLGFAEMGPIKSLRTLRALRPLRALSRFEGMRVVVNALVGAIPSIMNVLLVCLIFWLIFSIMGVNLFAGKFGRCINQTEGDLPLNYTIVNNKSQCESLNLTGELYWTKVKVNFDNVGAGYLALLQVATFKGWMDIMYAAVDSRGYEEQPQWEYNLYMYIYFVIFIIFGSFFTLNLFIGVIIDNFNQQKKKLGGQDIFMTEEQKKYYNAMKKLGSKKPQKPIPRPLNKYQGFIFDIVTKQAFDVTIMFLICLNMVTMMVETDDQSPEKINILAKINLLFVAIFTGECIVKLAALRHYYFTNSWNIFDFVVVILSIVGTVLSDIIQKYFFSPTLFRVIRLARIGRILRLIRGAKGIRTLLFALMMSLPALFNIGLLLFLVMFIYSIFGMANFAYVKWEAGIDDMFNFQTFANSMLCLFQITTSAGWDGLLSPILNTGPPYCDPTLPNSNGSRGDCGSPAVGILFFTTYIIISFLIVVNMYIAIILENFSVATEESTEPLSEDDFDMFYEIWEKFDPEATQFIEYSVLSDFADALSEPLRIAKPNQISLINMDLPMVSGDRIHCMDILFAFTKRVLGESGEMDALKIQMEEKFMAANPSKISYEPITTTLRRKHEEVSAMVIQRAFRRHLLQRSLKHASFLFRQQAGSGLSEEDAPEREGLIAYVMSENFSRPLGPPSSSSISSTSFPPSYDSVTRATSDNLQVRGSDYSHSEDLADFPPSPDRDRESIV

Structure (SMILES)	IC50 [1, 6] [µM]	IC50 [2] [µM]	IC50 [3] [µM]	IC50 [4] [µM]	IC50 [5] [µM]	IC50 [1] [µM]
Cc1nc(S(=O)(=O)Nc2cscn2)ccc1NCc1c(F)cccc1CN1CCC1 [Example 4, 5-((2-(azetidin-1-ylmethyl)-6-fluorobenzyl)amino)-6-methyl-N-(thiazol-4-yl)pyridine-2-sulfonamide]	28.2	0.026	28.8	0.111		
Cc1nc(S(=O)(=O)Nc2cscn2)ccc1NCc1c(F)cccc1CN(C)C(C)(C)C [Example 6, 5-((2-((tert-butyl(methyl)amino)methyl)-6-fluorobenzyl)amino)-6-methyl-N-(thiazol-4-yl)pyridine-2-sulfonamide formic acid salt]	30	0.069	30	0.398		
Cc1nc(S(=O)(=O)Nc2ccsn2)ccc1NCc1c(F)cccc1CN(C)C(C)(C)C [Example 19, 5-((2-((tert-butyl(methyl)amino)methyl)-6-fluorobenzyl)amino)-N-(isothiazol-3-yl)-6-methylpyridine-2-sulfonamide trifluoroacetic acid salt]	30	0.038	30	0.221		
Cc1nc(S(=O)(=O)Nc2ccsn2)ccc1NCc1c(F)cccc1CN1CCC1 [Example 20, 5-((2-(azetidin-1-ylmethyl)-6-fluorobenzyl)amino)-N-(isothiazol-3-yl)-6-methylpyridine-2-sulfonamide trifluoroacetic acid salt]	25	0.023	30	0.067		
Cc1nc(S(=O)(=O)Nc2cscn2)ccc1NCc1c(F)ccc(F)c1CN(C)C(C)(C)C [Example 21, 5-((2-((tert-butyl(methyl)amino)methyl)-3,6-difluorobenzyl)amino)-6-methyl-N-(thiazol-4-yl)pyridine-2-sulfonamide trifluoroacetic acid salt]	30	0.043	30	0.102		
Cc1nc(S(=O)(=O)Nc2cscn2)ccc1NCc1c(F)cccc1CN1C2CCC1CC2 [Example 25, 5-((2-((7-azabicyclo[2.2.1]heptan-7-yl)methyl)-6-fluorobenzyl)amino)-6-methyl-N-(thiazol-4-yl)pyridine-2-sulfonamide trifluoroacetic acid salt]			30	0.154	30	
Cc1nc(S(=O)(=O)Nc2cscn2)ccc1NCc1c(F)cccc1CN(C)C(C)C [Example 29, 5-((2-fluoro-6-((isopropyl(methyl)amino)methyl)benzyl)amino)-6-methyl-N-(thiazol-4-yl)pyridine-2-sulfonamide trifluoroacetic acid salt]		0.039	≥ 30	0.082		≥ 30
Cc1nc(S(=O)(=O)Nc2cscn2)c(F)cc1NCc1c(F)cccc1CN1C2CCC1CC2 [Example 33, 5-((2-((azabicyclo[2.2.1]heptan-7-yl)methyl)-6-fluorobenzyl)amino)-3-fluoro-6-methyl-N-(thiazol-4-yl)pyridine-2-sulfonamide trifluoroacetic acid salt]					30	
Cc1nc(S(=O)(=O)Nc2cscn2)c(F)cc1NCc1cccc(C(F)(F)F)c1CN1C2CCC1CC2 [Example 37, 5-((2-((7-azabicyclo[2.2.1]heptan-7-yl)methyl)-3-(trifluoromethyl)benzyl)amino)-3-fluoro-6-methyl-N-(thiazol-4-yl)pyridine-2-sulfonamide trifluoroacetic acid salt]			8.7	5.92		≥ 30
Cc1nc(NCc2c(F)cccc2CN2CCCC2)ccc1S(=O)(=O)Nc1cccc(F)n1 [Example 40, 6-((2-fluoro-6-(pyrrolidin-1-ylmethyl)benzyl)amino)-N-(6-fluoropyridin-2-yl)-2-methylpyridine-3-sulfonamide trifluoroacetic acid salt]	3.27		5.54	2.23		
Cc1nc(S(=O)(=O)Nc2cccc(F)n2)ccc1NCc1c(F)cccc1CN1CCCC1 [Example 41, 5-((2-fluoro-6-(pyrrolidin-1-ylmethyl)benzyl)amino)-N-(6-fluoropyridin-2-yl)-6-methylpyridine-2-sulfonamide trifluoroacetic acid salt]	30		11.1	0.056		
O=S(=O)(Nc1cccc(F)n1)c1cnc(NCc2c(F)cccc2CN2CCCC2)c(Cl)c1 [Example 42, 5-chloro-6-((2-fluoro-6-(pyrrolidin-1-ylmethyl)benzyl)amino)-N-(6-fluoropyridin-2-yl)pyridine-3-sulfonamide trifluoroacetic acid salt]	9.11		6.29	4.47		
Cc1cc(S(=O)(=O)Nc2cccc(F)n2)sc1NCc1c(F)cccc1CN1CCCC1 [Example 43, 5-((2-fluoro-6-(pyrrolidin-1-ylmethyl)benzyl)amino)-N-(6-fluoropyridin-2-yl)-4-methylthiophene-2-sulfonamide trifluoroacetic acid salt]	10.3		8.21	2.11		
O=S(=O)(Nc1cscn1)c1ccc(NCc2c(F)ccc(F)c2CN2CCCC2)n2ccnc12 [Example 44, 5-((3,6-difluoro-2-(pyrrolidin-1-ylmethyl)benzyl)amino)-N-(thiazol-4-yl)imidazo[1,2-a]pyridine-8-sulfonamide trifluoroacetic acid salt]	8.85		20.2	0.171		
Cc1c(NCc2c(F)cccc2CN(C)C(C)C)cnc(S(=O)(=O)Nc2cccc(F)n2)c1F [Example 45, 3-fluoro-5-((2-fluoro-6-((isopropyl(methyl)amino)methyl)benzyl)amino)-N-(6-fluoropyridin-2-yl)-4-methylpyridine-2-sulfonamide]	30		30	1.93		
Cc1nc(S(=O)(=O)Nc2ccon2)c(F)cc1NCc1ccccc1CN(C)C(C)(C)C [Example 46, 5-((2-((tert-butyl(methyl)amino)methyl)benzyl)amino)-3-fluoro-N-(isoxazol-3-yl)-6-methylpyridine-2-sulfonamide trifluoroacetic acid salt]			≥ 30	1.78		≥ 30
O=S(=O)(Nc1cscn1)c1ccc(NCc2c(F)cccc2CN2C3CCC2CC3)c(C(F)(F)F)n1 [Example 47, 5-((2-((7-azabicyclo[2.2.1]heptan-7-yl)methyl)-6-fluorobenzyl)amino)-N-(thiazol-4-yl)-6-(trifluoromethyl)pyridine-2-sulfonamide trifluoroacetic acid salt]			13.6	0.021	30	
Cc1nc(S(=O)(=O)Nc2cscn2)c(F)cc1NCc1c(F)cccc1CN(C)C(C)(C)C [Example 48, 5-((2-((tert-butyl(methyl)amino)-methyl)-6-fluorobenzyl)amino)-3-fluoro-6-methyl-N-(thiazol-4-yl)pyridine-2-sulfonamide]	30	0.017	30	0.084		
CN(Cc1cccc(F)c1CNc1cc(F)c(S(=O)(=O)Nc2cscn2)nc1C1CC1)C(C)(C)C [Example 49, 5-((2-((tert-butyl(methyl)amino)methyl)-6-fluorobenzyl)amino)-6-cyclopropyl-3-fluoro-N-(thiazol-4-yl)pyridine-2-sulfonamide]	7.5		3.75	0.078		

— patent US10981905B2, “Heteroaryl-substituted sulfonamide compounds and their use as therapeutic agents” (Xenon Pharmaceuticals Inc., priority 2018, dated 2021)
